Assay results published in article PMC10788856, “Mimicking Nonribosomal Peptides from the Marine Actinomycete Streptomyces sp. H-KF8 Leads to Antimicrobial Peptides” (ACS Infectious Diseases, 2023).
≈ marks a conversion by molar mass, not a printed value. Marks after values point to notes of the source that are not given here. Numbered stars: 1 amine (or outer) side, 2 acyl side, 3 side chain; on linkers, the order of the positions; unused ones are H or OH. Bridge positions count the residues as written; N and C are the ends. Square brackets hold non-standard residues; d marks the D form. Peptide text beside a SMILES is read from it. Tyr(3-NO2) = N[C@@H](Cc1ccc(O)c([N+](=O)[O-])c1)C(=O)O; Glutaryl = O=C(CCCC(=O)[*:2])[*:1]; Orn = NCCC[C@H](N)C(=O)O

What was measured:
[1] = test system: Candida albicans (ATCC 64549/CCUG31028); assay: Minimum microbicidal concentration (MMC99) assay; assay type: cell-based, C. albicans; settings: BHI diluted 1/100, 37 °C, median, n = 3
Procedure: (§1) The microbicidal activity of the synthetic peptides was assessed against S. aureus (ATCC 12600; American Type Culture Collection, Manassas, VA, USA), Escherichia coli (CCUG 31246; Culture Collection, University of Gothenburg, Sweden), and Candida albicans (ATCC 64549/CCUG31028) using an MMC assay, as described previously by […] et al. (specific details in Supporting Information, pages 10, 11).[28] The assay was performed in BHI diluted 1/100 (BHI100). […] page 11: Table S5. Energy and structural ensembles of synthesized peptides. […] Energy -3887.06 -3620.88 -4968.42 -2163.76 -2646.75 Van der Waals solv. Energy 117.32 91.57 183.20 -88.88 -139.89 Mean RMSD* (Å), mean±SD […] Heavy atoms 1.87 ± 0.33 1.77 ± 0.50 0.98 ± 0.34 0.63 ±0.22 2.88 ±0.62 MMC99 activity including salt stability measurements Antimicrobial activity of L2 and L3 in the presence of NaCl. 1Table S6. Peptide MMC99 (μg/ml) sin NaCl S. aureus E.coli C. albicans (mM) 2[…] 0 50 25 25 85 - - - - - - >200 >200 >200 150 - - - - - - >200 >200 >200 3L 0 12.5 12.5 25 12,5 6.3 6.3 12.5 6.3 12.5 […] 150 >400 >400 (-)2 >400 >400 >400 >200 >200 >200 […] or 150 mM NaCl. L2 and L3 were serially diluted in twofold steps with a starting dilution of 200 μg/ml […] All sample dilutions were run in duplicates (L2) or triplicates (L3). 2 The growth of S. aureus at 24 h in BHI 100 with 85 or 150 mM NaCl was reduced. Minimum microbicidal concentration (MMC), killing 99% of the inoculum. All microorganisms were cultured in brain-heart infusion broth (BHI) overnight on a shaker at 37°C. The cultures were thereafter transferred to fresh BHI broth in volumes constituting 10% of total, and incubated for an additional 2 h to reach exponential growth phase. The bacterial cultures were washed once in BHI diluted 1/100 (BHI100), followed by resuspension in BHI100. The cell suspensions were diluted to a density of […] (bacteria) or 2x10^7 CFU/ml (yeast), as estimated by optical density measurement at 590 nm. […] Serum stability Figure S 133. […] A) peptide L2 B) peptide L3. C) peptide L3-K. D) peptide C3.

C. albicans = assay: microbe, parasite or virus in culture; assay type: cell-based; settings: for C. albicans MIC: 16 h
S. aureus = assay: microbe, parasite or virus in culture; assay type: cell-based; settings: for S. aureus MIC: 16 h
E. coli CCUG31246 = assay type: cell-based; settings: CCUG31246, 16 h
Procedure: MICs were performed under the same growth conditions used for mode of action analysis following the guidelines issued by the Clinical Laboratory Standardization Institute (CLSI) with slight modifications. Serial two-fold dilutions of the peptides were prepared in 1:10 BHI in a sterile 96-well plate and subsequently inoculated with 5 × 10^5 CFU/mL of E. coli CCUG31246. […] The following MICs were obtained: C3: 512 μg/mL, L3: 64 μg/mL, and L3-K: 128 μg/mL. These concentrations were used for all mechanistic experiments. Polymyxin B was used as a positive control in all assays at a final concentration of 10 μg/mL.

S. aureus (ATCC 12600) = assay: Minimum microbicidal concentration (MMC99) assay; assay type: cell-based; settings: for S. aureus MMC99 6 h / S. aureus MMC99 24 h / S. aureus MMC99 2 h: BHI diluted 1/100, 37 °C, median, n = 3; for S. aureus MMC99 2 h: lowest concentration killing 99% of inoculum, two-fold dilutions 100-1.6 μg/mL
Procedure: as §1

[2] = 37 °C, RP-HPLC; for stability in human serum: human serum from male AB plasma, 250 μL serum + 100 μL aqueous peptide solution (L2 1 mM; L3 0.9 mM; L3-K 0.7 mM; C3 0.5 mM), 0, 0.5, 1, 4, 24 h, Fmoc-Gly internal standard; for additional peaks / shoulder in chromatogram after 24 h in serum, total volume percentage: human serum, detection at 254 nm
Procedure: Peptide stability in serum is another limiting factor for AMPs as novel antibiotics.[30]
Peptide serum stability was performed according to D́Aloisio et al.[30] and Chen et al.[51] with some minor modifications. The serum stability was investigated using human serum (Sigma-Aldrich) from Human male AB plasma, USA origin, sterile-filtered. 250 μL serum was temperature-equilibrated at 37 °C and 100 μL aqueous peptide solution (L2: 1 mM; L3: 0.9 mM; L3-K: 0.7 mM; and C3: 0.5 mM) was added. RP-HPLC was measured at time intervals of 0, 0.5, 1, 4, and 24 h. For RP-HPLC samples, 30 μL of peptide solution was taken, 7 μL of Fmoc-Gly solution (4 mM) was added, and 2 μL of the sample was injected to HPLC. […]
Figure S 133. RP-HPLC chromatogram (gradient from 10 to 90% acetonitrile in water over 10 min at 2
ml/min, detection at 254 nm) of peptides tested for serum stability. A) peptide L2 B) peptide L3. C)
(1 picture or pasted object on this page, not shown here)

[3] = test system: human embryonic kidney (HEK) cells; assay type: cell-based
Procedure: (§2) To confirm the peptide selectivity toward bacteria cells, cytotoxicity assays of synthesized peptides L2, L3, L3-K, and C3 against human embryonic kidney (HEK) and hepatoblastoma (HepG2) were performed (Figure 4). The cell viability was assessed using resazurin 24 h post peptide exposure. The line at 70% cell viability marks out the threshold for cytotoxic potential compared to the negative control.
(§3) Figure 4 Cell viability assessment using the resazurin assay 24 h post peptide exposure: (a) HepG2 and (b) HEK cells were treated with various concentrations of the peptides C3, L3, L3-K, and L2. Triton-X was used as a positive control. Cells cultured in pure cell media were used as negative controls and were considered to have 100% cell viability. The line represents the threshold for cytotoxicity level of 70% of cell viability compared to the negative control. Data are presented as the mean ± SD of three biological replicates of the HepG2 cells and the mean ± SD of two biological replicates of the HEK cells.
(§4) Cytotoxicity against human embryonic kidney (HEK) and hepatoblastoma (HepG2) cell lines was assessed. Cells were grown to an initial seeding density of 10 000 cells per well. Metabolic activity was determined in a resazurin-based assay. HEK and HepG2 cells were exposed to four different concentrations of the peptides for 24 h. Treatment with Triton X-100 at 1% v/v was used as a positive control. Following this exposure period, the cells were treated with resazurin at a final concentration of 0.015 mg/mL for 3 h. The metabolic activity was then determined in an resazurin-based assay. The fluorescence intensities were quantified in a Hidex Sense microplate reader using an excitation wavelength of 544 nm and an emission wavelength of 590 nm.

[4] = test system: hepatoblastoma (HepG2) cells; assay type: cell-based, human
Procedure: as §2, §3, §4

[5] = test system: Escherichia coli (CCUG 31246); assay: Minimum microbicidal concentration (MMC99) assay; assay type: cell-based, E. coli; settings: BHI diluted 1/100, 37 °C, median, n = 3
Procedure: as §1

| SMILES | C. albicans MMC99 2 h [1] | C. albicans MMC99 6 h [1] | C. albicans MMC99 24 h [1] | C. albicans MIC (C. albicans) | S. aureus MIC (S. aureus) | E. coli MIC (E. coli CCUG31246) | S. aureus MMC99 6 h (S. aureus (ATCC 12600)) | S. aureus MMC99 24 h (S. aureus (ATCC 12600)) | S. aureus MMC99 2 h (S. aureus (ATCC 12600)) | also measured |
| --- | --- | --- | --- | --- | --- | --- | --- | --- | --- | --- |
| Clc1ccccc1C(c1ccccc1)(c1ccccc1)n1ccnc1 [clotrimazole, reference compound] | >100 ^d μg/mL | >100 ^d μg/mL | >100 ^d μg/mL | – | – | – | – | – | – | MIC (C. albicans; Candida albicans, highest concentration 512 μg/mL, median, n = 3): 4 µg/mL (≈ 11.6 µM) |
| CC(C)[C@@H](NC(=O)[C@H](CCCN)NC(=O)[C@@H](NC(=O)[C@H](CCCN)NC(=O)[C@H](Cc1c[nH]c2ccccc12)NC(=O)[C@@H](C)NC(=O)[C@H](NC(=O)[C@@H](C)N)C(C)C)[C@@H](C)O)C(N)=O [L2-K] (H-[dA][dV][dA]W[Orn]T[Orn][dV]-NH2) | – | – | – | >512 µg/mL | >512 µg/mL | >512 µg/mL | – | – | – | – |
| CC(=O)O[C@H]1C[C@@]2(C)[C@@H](C[C@@H](O)[C@H]3[C@@]4(C)CC[C@@H](O)[C@@H](C)[C@@H]4CC[C@@]32C)/C1=C(\CCC=C(C)C)C(=O)O [fusidic acid, reference compound] | – | – | – | – | – | – | 6.3 µg/mL | 1.6 µg/mL | 25 µg/mL | MIC (S. aureus; Staphylococcus aureus, read-out: S. aureus MIC): 0.09 µg/mL (≈ 0.174 µM); MMC99 for S. aureus, decreasing over time (S. aureus (ATCC 12600); 2 h to 24 h): 25 to 1.6 μg/mL |
| CC(C)[C@@H](NC(=O)[C@H](CCCN)NC(=O)[C@@H](NC(=O)[C@H](CCCN)NC(=O)[C@H](Cc1c[nH]c2ccccc12)NC(=O)[C@@H](C)NC(=O)[C@H](NC(=O)[C@@H](C)NC(=O)[C@@H](N)Cc1c[nH]c2ccccc12)C(C)C)[C@@H](C)O)C(=O)N[C@@H](Cc1ccc(O)c([N+](=O)[O-])c1)C(N)=O [L3-K] (H-W[dA][dV][dA]W[Orn]T[Orn][dV][Tyr(3-NO2)]-NH2) | – | – | – | 248 µg/mL | 418.7 µg/mL | – | – | – | – | stability in human serum [2]: stable after 24 h; additional peaks / shoulder in chromatogram after 24 h in serum, total volume percentage [2]: 1.3%; cytotoxicity, cell viability HEK [3]: no cytotoxicity at any tested concentration; cytotoxicity, cell viability HepG2 [4]: no cytotoxicity at any tested concentration |
| CC(C)[C@@H](NC(=O)[C@@H](C)N)C(=O)N[C@H](C)C(=O)N[C@@H](Cc1c[nH]c2ccccc12)C(=O)N[C@H](CC(=O)O)C(=O)N[C@H](C(=O)N[C@H](CC(=O)O)C(=O)N[C@@H](C(=O)N[C@@H](CCCCN)C(N)=O)C(C)C)[C@@H](C)O [L1] (H-[dA][dV][dA]W[dD]T[dD][dV]K-NH2) | – | – | – | >512 µg/mL | >512 µg/mL | >512 µg/mL | – | – | – | – |
| CC(C)[C@@H](NC(=O)[C@H](CCCN)NC(=O)[C@@H](NC(=O)[C@H](CCCN)NC(=O)[C@H](Cc1c[nH]c2ccccc12)NC(=O)[C@@H](C)NC(=O)[C@H](NC(=O)[C@@H](C)NC(=O)[C@@H](N)Cc1c[nH]c2ccccc12)C(C)C)[C@@H](C)O)C(=O)N[C@@H](Cc1ccc(O)c([N+](=O)[O-])c1)C(=O)N[C@@H](CCCCN)C(N)=O [L3] (H-W[dA][dV][dA]W[Orn]T[Orn][dV][Tyr(3-NO2)]K-NH2) | – | – | – | – | 248 µg/mL | 64 µg/mL | – | – | – | stability in human serum [2]: stable after 24 h; additional peaks / shoulder in chromatogram after 24 h in serum, total volume percentage [2]: 0.6%; cytotoxicity, cell viability HEK [3]: no cytotoxicity at any tested concentration; cytotoxicity, cell viability HepG2 [4]: no cytotoxicity at any tested concentration |
| CC(C)[C@H]1NC(=O)[C@@H](C)NC(=O)CCCC(=O)NCCCC[C@@H](C(N)=O)NC(=O)[C@@H](C(C)C)NC(=O)[C@@H](CC(=O)O)NC(=O)[C@H]([C@@H](C)O)NC(=O)[C@@H](CC(=O)O)NC(=O)[C@H](Cc2c[nH]c3ccccc23)NC(=O)[C@@H](C)NC1=O [C1] ([dA][dV][dA]W[dD]T[dD][dV]K-NH2; linker N-9 via Glutaryl) | >100 µg/mL | >100 µg/mL | >100 µg/mL | >512 µg/mL | >512 µg/mL | >512 µg/mL | >100 µg/mL | >100 µg/mL | >100 µg/mL | E. coli MMC99 2 h [5]: >100 µg/mL; E. coli MMC99 6 h [5]: >100 µg/mL; E. coli MMC99 24 h [5]: >100 µg/mL |
| CC(C)[C@H]1NC(=O)[C@H](CCCN)NC(=O)[C@H]([C@@H](C)O)NC(=O)[C@H](CCCN)NC(=O)[C@H](Cc2c[nH]c3ccccc23)NC(=O)[C@@H](C)NC(=O)[C@@H](C(C)C)NC(=O)[C@@H](C)NC(=O)CCCC(=O)NCCCC[C@@H](C(N)=O)NC1=O [C2] ([dA][dV][dA]W[Orn]T[Orn][dV]K-NH2; linker N-9 via Glutaryl) | >100 µg/mL | >100 µg/mL | >100 µg/mL | >512 µg/mL | >512 µg/mL | >512 µg/mL | >100 µg/mL | >100 µg/mL | >100 µg/mL | E. coli MMC99 2 h [5]: >100 µg/mL; E. coli MMC99 6 h [5]: >100 µg/mL; E. coli MMC99 24 h [5]: >100 µg/mL |
